Drawing on patent US7884124B2, “Fluoro-substituted inhibitors of D-amino acid oxidase” (Sepracor Inc., priority 2006, dated 2011), this text covers IC50, response vs control in vivo and inhibition for 29 molecules.

Like-named read-outs stand apart in the source and are kept apart here.

The target in one experiment is Human DAAO (Homo sapiens, UniProt P14920). As to the kind of experiment: D-Amino Acid Oxidase Enzyme Assay (D-serine substrate, horseradish peroxidase/Amplex Red coupled fluorescence). The experiment is classed as biochemical.
Experiment [1] deals with D-Serine Levels in the cerebellum. Description: In vivo elevation of D-serine levels in the cerebellum (LC/MS/MS). Particulars: Mus musculus, ip, mice, read-out: Fold increase in D-serine in the cerebellum over vehicle; for response vs control in vivo at 10 mg/kg: 10 mg/kg i.p.; for response vs control in vivo at 50 mg/kg: 50 mg/kg i.p. On the procedure:
In another example, the compounds activity is determined by measuring D-serine levels in vivo. Elevation of the D-serine level in a certain brain area (e.g., the cerebellum) of a test animal (e.g., mouse, rat, pig and the like) is indicative of DAAO inhibition in vivo. An exemplary assay format, which measures D-serine levels (LC/MS/MS) in the cerebellum of mice two hours and six hours after intraperitoneal (i.p.) dosing, is described herein (e.g., Example 9). Increases in D-serine levels were determined through comparison with vehicle. Useful variations of this assay will be apparent to those of skill in the art. Compounds of the invention are judged to be sufficiently active in this assay when at least one, preferably at least two, more preferably at least three and most preferably all four of the following criteria are met:
Mice (C57BL/6, 8-9 weeks of age) were dosed intraperitoneally at 10 mL/kg with 50 mg/kg or 10 mg/kg of compound suspended in 45% (w/v) hydroxy-β-cyclodextrin vehicle. Animals were sacrificed at either 2 or 6 hours post compound administration with an N=3 per time point. At sacrifice, trunk blood was collected into tubes containing potassium EDTA, which were then centrifuged to permit isolation of plasma. The cerebellum from each animal was dissected. Plasma and cerebellum samples were stored at −80° C. until samples were analyzed (LC/MS/MS).

Setting [2] is: D-serine 5 mM, pH 7.4, read-out: Human DAAO Inhibition (IC50).

Chain of Human DAAO (P14920 whole entry): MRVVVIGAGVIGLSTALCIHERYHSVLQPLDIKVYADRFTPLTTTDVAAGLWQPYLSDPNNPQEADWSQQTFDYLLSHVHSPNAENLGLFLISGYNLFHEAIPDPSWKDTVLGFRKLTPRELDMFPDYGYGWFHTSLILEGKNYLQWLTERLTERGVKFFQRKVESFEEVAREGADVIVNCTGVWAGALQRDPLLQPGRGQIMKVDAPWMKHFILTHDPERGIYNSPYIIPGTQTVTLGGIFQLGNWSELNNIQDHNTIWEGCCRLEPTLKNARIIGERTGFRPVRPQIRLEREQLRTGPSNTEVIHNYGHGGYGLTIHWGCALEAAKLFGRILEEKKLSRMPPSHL
Description for Human DAAO: This coupled reaction uses the enzyme substrate Amplex Red (Molecular Probes), which is converted to the fluorescent reaction product, resorufin (excitation 530-560 nm; emission ˜590 nm). All reagents were prepared in 50 mM sodium phosphate buffer at pH 7.4 and inhibition curves were generated at this pH.
The final concentrations of components in 200 μl total volume per well (black clear-bottom 96-well plate, Costar) were:
(a) Horseradish peroxidase: 4 Units per ml
(d) Amplex Red reagent: 50 uM
The reactions were initiated by addition of DAAO enzyme while the fluorescence was monitored. […] Inhibition curves were generated in the presence of varying concentrations of the inhibitor and IC50 values were calculated for each inhibitor.

Broadly, the IC50 is the concentration needed to halve the response being measured. As to `O=C(O)c1[nH]c2ccoc2c1Cl` [Compound 79, 6-chloro-4H-furo[3,2-b]pyrrole-5-carboxylic acid], the 50% inhibitory concentration (IC50) on Human DAAO (setting [2]) is less than 100 nM.
`O=C(O)c1cc2sc(F)cc2[nH]1` [Compound 55, 2-fluoro-4H-thieno[3,2-b]pyrrole-5-carboxylic acid]: the IC50 on Human DAAO (setting [2]) is less than 25 nM. For the same molecule, in experiment [1] (2 h), the response vs control in vivo at 10 mg/kg was less than 150% and the response vs control in vivo at 50 mg/kg is more than 200%. Moreover, in experiment [1] (6 h), the response vs control in vivo at 10 mg/kg was less than 150% and the response vs control in vivo at 50 mg/kg was in the range of 150 to 200%.
For `O=C(O)c1[nH]c2ccoc2c1Br` [Compound 72, 6-bromo-4H-furo[3,2-b]pyrrole-5-carboxylic acid], the IC50 at Human DAAO (setting [2]) is less than 1000 nM. Moreover, the response vs control in vivo at 10 mg/kg in experiment [1] (2 h) and in experiment [1] (6 h) was less than 150% each time. Further, the response vs control in vivo at 50 mg/kg in experiment [1] (2 h) and in experiment [1] (6 h) was less than 150% each time.
As for `O=C(O)c1[nH]c2sccc2c1Cl` [Compound 69, 4-chloro-6H-thieno[2,3-b]pyrrole-5-carboxylic acid], the IC50 on Human DAAO (setting [2]) was less than 100 nM.
With `O=C(O)c1cc2c(F)csc2[nH]1` [Compound 68, 3-fluoro-6H-thieno[2,3-b]pyrrole-5-carboxylic acid], at Human DAAO (setting [2]), the IC50 was less than 25 nM. In experiment [1] (2 h), the response vs control in vivo at 10 mg/kg is less than 150% and the response vs control in vivo at 50 mg/kg fell in the range of 150 to 200%. In addition, in experiment [1] (6 h), the response vs control in vivo at 10 mg/kg was less than 150% and the response vs control in vivo at 50 mg/kg lay in the range of 150 to 200%.
Regarding `O=C(O)c1cc2oc(Br)cc2[nH]1` [Compound 73, 2-bromo-4H-furo[3,2-b]pyrrole-5-carboxylic acid], the IC50 at Human DAAO (setting [2]) is less than 100000 nM.
For `O=C(O)c1cc2occ(Cl)c2[nH]1` [Compound 76, 3-chloro-4H-furo[3,2-b]pyrrole-5-carboxylic acid], on Human DAAO, the IC50 is less than 100 nM. In addition, the response vs control in vivo at 10 mg/kg in experiment [1] (2 h) and in experiment [1] (6 h) was less than 150% throughout.
As to `O=C(O)c1cc2c(Cl)csc2[nH]1` [Compound 81, 3-chloro-6H-thieno[2,3-b]pyrrole-5-carboxylic acid], the concentration for half-maximal inhibition (IC50) at Human DAAO (setting [2]) is less than 100 nM.
As to `O=C(O)c1[nH]c2ccoc2c1F` [Compound 75, 6-fluoro-4H-furo[3,2-b]pyrrole-5-carboxylic acid], the IC50 at Human DAAO (setting [2]) was less than 25 nM. The response vs control in vivo at 10 mg/kg is more than 200% in experiment [1] (2 h) and 150 to 200% in experiment [1] (6 h). In addition, the response vs control in vivo at 50 mg/kg in experiment [1] (2 h) and in experiment [1] (6 h) was more than 200% in each case.
Take `O=C(O)c1cc2cc(Br)sc2[nH]1` [Compound 65, 2-bromo-6H-thieno[2,3-b]pyrrole-5-carboxylic acid]: the IC50 on Human DAAO (setting [2]) was less than 100000 nM.
Take `O=C(O)c1cc2cc(F)sc2[nH]1` [Compound 66, 2-fluoro-6H-thieno[2,3-b]pyrrole-5-carboxylic acid]: the IC50 at Human DAAO (setting [2]) was less than 25 nM. Moreover, in experiment [1] (2 h), the response vs control in vivo at 10 mg/kg was in the range of 150 to 200% and the response vs control in vivo at 50 mg/kg was more than 200%. In addition, in experiment [1] (6 h), the response vs control in vivo at 10 mg/kg was less than 150% and the response vs control in vivo at 50 mg/kg lay within 150 to 200%.
Regarding `O=C(O)c1[nH]c2sccc2c1Br` [Compound 64, 4-bromo-6H-thieno[2,3-b]pyrrole-5-carboxylic acid], on Human DAAO (setting [2]), the IC50 was less than 1000 nM. For the same molecule, in experiment [1] (2 h), the response vs control in vivo at 10 mg/kg is less than 150% and the response vs control in vivo at 50 mg/kg was less than 150%. Besides, in experiment [1] (6 h), the response vs control in vivo at 10 mg/kg is less than 150% and the response vs control in vivo at 50 mg/kg was less than 150%.
`O=C(O)c1cc2oc(Cl)cc2[nH]1` [Compound 23, 2-chloro-4H-furo[3,2-b]pyrrole-5-carboxylic acid]: the IC50 at Human DAAO (setting [2]) was less than 100000 nM.
With `O=C(O)c1cc2c(Br)csc2[nH]1` [Compound 8, 3-bromo-6H-thieno[2,3-b]pyrrole-5-carboxylic acid], the IC50 on Human DAAO (setting [2]) was less than 1000 nM. Besides, in experiment [1] (2 h), the response vs control in vivo at 10 mg/kg was less than 150% and the response vs control in vivo at 50 mg/kg was 150 to 200%. In experiment [1] (6 h), the response vs control in vivo at 10 mg/kg is less than 150% and the response vs control in vivo at 50 mg/kg fell in the range of 150 to 200%.
Regarding `O=C(O)c1cc2cc(Cl)sc2[nH]1` [Compound 80, 2-chloro-6H-thieno[2,3-b]pyrrole-5-carboxylic acid], the IC50 at Human DAAO (setting [2]) was less than 100000 nM.
In the case of `O=C(O)c1cc2scc(Cl)c2[nH]1` [Compound 67, 3-chloro-4H-thieno[3,2-b]pyrrole-5-carboxylic acid], on Human DAAO (setting [2]), the IC50 is less than 25 nM. In addition, in experiment [1] (2 h), the response vs control in vivo at 10 mg/kg is less than 150% and the response vs control in vivo at 50 mg/kg was less than 150%. In addition, in experiment [1] (6 h), the response vs control in vivo at 10 mg/kg is less than 150% and the response vs control in vivo at 50 mg/kg was less than 150%.
With `O=C(O)c1cc2scc(F)c2[nH]1` [Compound 56, 3-fluoro-4H-thieno[3,2-b]pyrrole-5-carboxylic acid], the IC50 on Human DAAO (setting [2]) was less than 25 nM. Besides, the response vs control in vivo at 10 mg/kg in experiment [1] (2 h) was 150 to 200%; in experiment [1] (6 h) it was less than 150%.
In the case of `O=C(O)c1cc2sc(Br)c(Br)c2[nH]1` [Compound 6, 2,3-dibromo-4H-thieno[3,2-b]pyrrole-5-carboxylic acid], the IC50 on Human DAAO (setting [2]) was less than 100000 nM.
Take `O=C(O)c1[nH]c2ccsc2c1F` [Compound 54, 6-fluoro-4H-thieno[3,2-b]pyrrole-5-carboxylic acid]: the IC50 on Human DAAO (setting [2]) was less than 25 nM. The response vs control in vivo at 10 mg/kg in experiment [1] (2 h) and in experiment [1] (6 h) was more than 200% each time.
With `O=C(O)c1cc2sc(Br)cc2[nH]1` [Compound 5, 2-bromo-4H-thieno[3,2-b]pyrrole-5-carboxylic acid], the 50% inhibitory concentration (IC50) at Human DAAO (setting [2]) was less than 1000 nM. In experiment [1] (2 h), the response vs control in vivo at 10 mg/kg was less than 150% and the response vs control in vivo at 50 mg/kg fell in the range of 150 to 200%. Also, in experiment [1] (6 h), the response vs control in vivo at 10 mg/kg was less than 150% and the response vs control in vivo at 50 mg/kg was less than 150%.
As to `O=C(O)c1[nH]c2ccsc2c1Br` [Compound 71, 6-bromo-4H-thieno[3,2-b]pyrrole-5-carboxylic acid], at Human DAAO (setting [2]), the IC50 was less than 1000 nM. Further, the response vs control in vivo at 10 mg/kg in experiment [1] (2 h) and in experiment [1] (6 h) was less than 150% in each case.
Consider `O=C(O)c1cc2occ(F)c2[nH]1` [Compound 74, 3-fluoro-4H-furo[3,2-b]pyrrole-5-carboxylic acid], for which, at Human DAAO (setting [2]), the IC50 was less than 25 nM. In experiment [1] (2 h), the response vs control in vivo at 10 mg/kg is more than 200% and the response vs control in vivo at 50 mg/kg was more than 200%. Further, in experiment [1] (6 h), the response vs control in vivo at 10 mg/kg was 150 to 200% and the response vs control in vivo at 50 mg/kg was more than 200%.
On to `O=C(O)c1cc2scc(Br)c2[nH]1` [Compound 49, 3-bromo-4H-thieno[3,2-b]pyrrole-5-carboxylic acid], for which, at Human DAAO (setting [2]), the IC50 was less than 100 nM. Besides, the response vs control in vivo at 50 mg/kg in experiment [1] (2 h) and in experiment [1] (6 h) was less than 150% in each case.
As to `O=C(O)c1cc2sc(Cl)cc2[nH]1` [Compound 4, 2-chloro-4H-thieno[3,2-b]pyrrole-5-carboxylic acid], the IC50 on Human DAAO (setting [2]) was less than 100000 nM. The response vs control in vivo at 50 mg/kg in experiment [1] (2 h) and in experiment [1] (6 h) was less than 150% in each case.
On to `O=C(O)c1[nH]c2ccsc2c1Cl` [Compound 70, 6-chloro-4H-thieno[3,2-b]pyrrole-5-carboxylic acid], for which, on Human DAAO (setting [2]), the IC50 was less than 100 nM. Besides, the response vs control in vivo at 10 mg/kg in experiment [1] (2 h) and in experiment [1] (6 h) was less than 150% each time.
Consider `O=C(O)c1[nH]c2sccc2c1F` [Compound 82, 4-fluoro-6H-thieno[2,3-b]pyrrole-5-carboxylic acid], for which the IC50 at Human DAAO (setting [2]) was less than 100 nM.
Same read-out and setting: the result for `O=C(O)c1cc2oc(F)cc2[nH]1` [Compound 78, 2-fluoro-4H-furo[3,2-b]pyrrole-5-carboxylic acid] reads less than 25 nM.
One may read the inhibition as how much of the control response was suppressed. High values mean a strong effect, low ones a weak effect. `O=C(O)c1[nH]c2sc(Br)cc2c1Br` [Compound 84, 2,4-dibromo-6H-thieno[2,3-b]pyrrole-5-carboxylic acid] returned an inhibition at 100 µM against Human DAAO of 33%.
Regarding `O=C(O)c1cc2occ(Br)c2[nH]1` [Compound 30, 3-bromo-4H-furo[3,2-b]pyrrole-5-carboxylic acid], at Human DAAO (setting [2]), the IC50 was less than 100 nM. Also, in experiment [1] (2 h), the response vs control in vivo at 10 mg/kg was less than 150% and the response vs control in vivo at 50 mg/kg lay in the range of 150 to 200%. Besides, in experiment [1] (6 h), the response vs control in vivo at 10 mg/kg was less than 150% and the response vs control in vivo at 50 mg/kg was less than 150%.
